Test results: patent publication US10471005B2, “Low dose pharmaceutical composition” (TORRENT PHARMACEUTICALS LIMITED, priority 2013, dated 2019)
Several values for one entry are separate records, joined by “and”; a condition that tells them apart may be missing. Identical values can stand only once. Like-named read-outs stand apart in the source and are kept apart here.

Assays:
[1] = tested on: interferon (INF)-γ; experiment: Inflammatory marker mRNA expression in colon, DSS model: INF-γ; assay type: in vivo, female BALB/c mice; details: 2.5 mg/kg bid oral day 5 to day 14, relative to placebo
Experimental: (§1) Effect of oral administration of pharmaceutical composition of compound A on expression of interleukin (IL)-10, TNF-α, and interferon (INF)-γ mRNA was assessed in DSS model of colitis.
(§2) Pharmaceutical composition comprising compound A was administered 2.5 mg/kg twice a day from day 5 to day 14 to DSS induced colitis mice (as developed according to example 7) by oral route (PO). Animals were sacrificed on day 14 and colon were processed for whole tissue extract preparation. Expression of interleukin (IL)-10, TNF-α, and interferon (INF)-γ mRNA along with expression of 18S rRNA was monitored employing gene specific primer and probes (Applied Biosystems, Foster City, Calif., USA) by quantitative real-time polymerase chain reaction on ABI 7900 HT (Applied Biosystems, Foster City, Calif., USA). mRNA expression was normalized relative to the expression of 18S rRNA. Placebo group was given similar composition without compound A. The results, as given in FIG. 7, were expressed as fold induction relative to placebo (composition without compound A).

[2] = tested on: ischemic acute kidney injury (AKI); details: administered intraperitoneally; cited from earlier work
[3] = Excretion of compound A in feces, DSS induced colitis model; assay type: in vivo, female BALB/c mice; details: for dose excreted: female, BALB/c, mouse, feces, po
Experimental: 5% DSS (MW-36000-50000) dissolved in drinking water was provided to female BALB/c mice throughout the study duration of 9 days. Single administration of pharmaceutical composition comprising compound A at the dose of 1 mg/kg of compound A, at 10 ml/kg dosing volume was performed orally on day 5. Feces were collected for 96 hours post administration of the composition. Feces collected was analyzed for compound A levels using LC-MS/MS method.

[4] = tested on: TNBS induced colitis; experiment: Effectiveness in TNBS induced colitis model; assay type: in vivo, male BALB/c mice
Experimental: (§3) Animal with TNBS (2,4,6 trinitrobenzene sulfonic acid) induced colitis is an established model for IBD. Male BALB/c mice were kept for 16 hours fasting and were administered 0.1 ml TNBS solution (containing 1.5 mg of TNBS in 50% ethanol) rectally 4 cm inside the anus with the help of flexible polyethylene catheter under isoflurane anesthesia. Immediately after TNBS administration, mice were held vertically in a head-down position for an additional 45-60 sec to ensure retention and distribution of TNBS solution within the colon of animal. (Fiorucci et al, Immunity, 2002; Vol. 17; 769-780)
Pharmaceutical composition comprising compound A was administered orally to mice with TNBS induced colitis (as developed according to example 3) at the dose of 1 mg/kg of compound A twice a day, at 10 ml/kg dosing volume. Dosing was initiated a day prior to induction (day −1) of TNBS colitis. Treatment related attenuation in body weight loss, improved disease activity index (DAI, a composite score ranging from 0 to maximum 12 considering the loss in body weight, fecal consistency and presence or absence of occult blood in feces), healthier colon (macroscopy score) and rate of survival were established in the 6 days treated animals (from day −1 to day 4) to check efficacy of compound A. Body weights were monitored daily, DAI was captured on day 2 and day 4 whereas colonic damage (macroscopy score and histopathological score) was scored based on extent of colonic damage. Histopathological evaluation of colonic damage was performed in formalin fixed colon tissue sections, stained with hematoxylin and eosin, at 10× magnification using Leica® DM2500 microscope, after study completion. (*p<0.05 vs placebo/vehicle {composition without compound A}), FIG. 5 and FIG. 8.
Similar to procedures given above in Example 5, pharmaceutical composition of compound A was administered, twice a day, in mice with TNBS induced colitis through intraperitoneal route and oral route. Treated animals were analyzed for improved disease activity index and healthier colon (macroscopy score).

[5] = tested on: DSS induced colitis; experiment: Effectiveness in DSS induced colitis model; assay type: in vivo, female BALB/c mice; details: 1 and 2.5 mg/kg bid oral, day 5 to day 14, vs placebo (5% DSS)
Experimental: 5% DSS (MW-36000-50000) dissolved in drinking water was provided to female BALB/c mice for 11 days (Gunther et al, The Journal of Pharmacology and Experimental Therapeutics, 1999; Vol. 292, No. 1; 22-30) followed by DSS free period till day 14. Pharmaceutical composition comprising compound A was administered to these animals from day 5 to day 14 at the dose of 1 and 2.5 mg/kg of compound A twice a day, at 10 ml/kg dosing volume by oral route (PO). Placebo group was given similar composition without compound A. Placebo (composition without compound A) was also administered to healthy animals, which were given only drinking water and represented as placebo (water). Treatment related attenuation in body weight loss, improved disease activity index (DAI, a composite score ranging from 0 to maximum 12 considering the loss in body weight, fecal consistency and presence or absence of occult blood in feces) and colon histopathology (Score) were established in 10 days treated animals (from day 5 to day 14) to check efficacy of compound A. Body weights were monitored daily, DAI was captured every alternate day whereas histopathological evaluation of colonic damage was performed in formalin fixed colon tissue after study completion, similar to example 5. (*p<0.05 vs placebo (5% DSS)) and FIG. 4.

[6] = Pharmacokinetic evaluation in TNBS induced colitis model (plasma levels, LC-MS/MS); assay type: in vivo, male BALB/c mice; details: TNBS colitis mice; for Cmax / AUC: male, BALB/c, mouse, 1 mg/kg twice a day, after fifth dose, plasma; for AUC: read-out: AUC0—12
Experimental: as §3
Pharmaceutical composition comprising compound A was administered to mice with TNBS induced colitis (as developed according to example 3) at the dose of 1 mg/kg of compound A twice a day, at 10 ml/kg dosing volume by intraperitoneal route and peroral route. Dosing was initiated a day prior to induction (day −1) of TNBS colitis. Blood samples of treated animals were collected before administration of fifth dose (0 min) and at various time points after fifth dose administration. Blood samples were centrifuged within one hour of collection at 4000 rpm for 10 min at 4° C. and plasma was separated. These plasma samples were analyzed for compound A levels using LC-MS/MS method. Pharmacokinetic parameters of the compound A were calculated by non-compartmental analysis method using Phoenix WinNolin version 6.2.

[7] = tested on: HSP70; experiment: HSP70 expression in colon, DSS model of colitis (immunoblotting); assay type: in vivo, female BALB/c mice; details: single oral 2.5 mg/kg, six hours after administration, vs placebo
Experimental: Effect of oral administration of pharmaceutical composition of compound A on expression of HSP70 was checked in DSS model of colitis.
5% DSS (MW-36000-50000) dissolved in drinking water was provided to female BALB/c mice for 5 days. Single dose of compound A was administered to these animals on day 5. Composition comprising compound A was administered at the dose of 2.5 mg/kg, at 10 ml/kg dosing volume by oral route (PO). Placebo group was given similar composition without compound A. Six hours after administration, animals were sacrificed and colon were processed for whole tissue extract preparation. Proteins were separated on SDS-PAGE followed by immunoblotting, employing HSP70 antibody.

[8] = tested on: TNF-α; experiment: Inflammatory marker mRNA expression in colon, DSS model: TNF-α; assay type: in vivo, female BALB/c mice; details: 2.5 mg/kg bid oral day 5 to day 14, relative to placebo
Experimental: as §1, §2

[9] = tested on: interleukin (IL)-10; experiment: Inflammatory marker mRNA expression in colon, DSS model: IL-10; assay type: in vivo, female BALB/c mice; details: 2.5 mg/kg bid oral day 5 to day 14, relative to placebo
Experimental: as §1, §2

[10] = single oral 1 mg/kg, feces collected 96 hours, individual animals, 1 mg/kg
[11] = 1 mg/kg bid oral, 6 days, vs placebo

- dose excreted ([3]; 1 mg/kg, single oral 1 mg/kg, feces collected 96 hours, individual animals, read-out: % Recovery in feces): 63.9%
- dose excreted ([3]; 1 mg/kg, single oral 1 mg/kg, feces collected 96 hours, mean of 5 animals, read-out: Mean % Recovery in feces): 58.7%
- Compound A recovered from feces ([3]; oral composition, diseased animals): more than 50%
- % Recovery in feces [3, 10]: 62.35% and 52.66% and 50.88% and 63.60%
- Cmax ([6]; ip, Intraperitoneal): 399 ng/mL
- AUC ([6]; ip, Intraperitoneal): 256 ng·h/mL
- Cmax ([6]; Per Oral): 13.2 ng/mL
- AUC ([6]; Per Oral): 63.1 ng·h/mL
Compound: O=C(O)CNC(=O)c1c(O)nc2sc3c(n2c1=O)CCCCC3 [compound A, [(2-hydroxy-4-oxo-6,7,8,9-tetrahydro-4H,5H-10-thia-1,4a-diaza-benzo[a]azulene-3-carbonyl)-amino]-acetic acid]
- INFγ mRNA expression in colon [1]: reduction
- Effectiveness in ischemic acute kidney injury (AKI) [2]: effective
- Total amount of compound A in feces [3, 10]: 15.34 µg and 13.71 µg and 12.63 µg and 12.71 µg and 12.08 µg
- Disease activity index (DAI) [4, 11]: improving the disease activity index
- Extent of colon damage (macroscopy, histopathology) [4, 11]: attenuating the extent of colon damage
- Rate of weight loss [4, 11]: reducing rate of weight loss
- Survival rate [4, 11]: improving survival rate
- Therapeutic efficacy (DAI, macroscopy score), oral compared to IP administration ([4]; twice a day, oral even at lower doses): better therapeutic efficacy as compared to IP administration
- Disease activity index (DAI) [5]: improving the disease activity index
- Extent of colon damage (colitis score) [5]: attenuating extent of colon damage
- Rate of weight loss [5]: reducing the rate of weight loss
- Tissue architecture (colon histopathology) [5]: preserving tissue architecture
- Systemic concentration, oral compared to IP administration ([6]; equal dose): significantly lower systemic concentration
- HSP70 protein expression in colon [7]: pronounced induction
- TNFα mRNA expression in colon [8]: reduction
- IL-10 mRNA expression in colon [9]: elevation
